The test system of this data set is CCRIS mutagenicity, Ames/micronucleus/aberration tests. The experiment in a line: CCRIS mutagenicity studies. The following applies: Test System: AMES SALMONELLA TYPHIMURIUM
The mark [1] stands for this setting: Strain/Indicator: TA98, Metabolic Activation: NONE, Method: STANDARD PLATE.
Where [2] appears, read: Strain/Indicator: TA100, Metabolic Activation: NONE, Method: STANDARD PLATE.
Setting [3] is: Strain/Indicator: TA1535, Metabolic Activation: NONE, Method: STANDARD PLATE.
[4] abbreviates: Strain/Indicator: TA1537, Metabolic Activation: NONE, Method: STANDARD PLATE.
The mark [5] stands for this setting: Strain/Indicator: TA98, Metabolic Activation: NONE, Method: PREINCUBATION
The mark [6] stands for this setting: Strain/Indicator: TA100, Metabolic Activation: NONE, Method: PREINCUBATION
Where [7] appears, read: Strain/Indicator: TA1535, Metabolic Activation: NONE, Method: PREINCUBATION
Where [8] appears, read: Strain/Indicator: TA1537, Metabolic Activation: NONE, Method: PREINCUBATION

Structures are written as SMILES. Active and inactive are the calls of the source. The rule behind the calls is not given here.

Turning to `C=CC(=O)OCCOC(=O)C=C`, the mutagenic call is “inactive; negative” (Strain/Indicator: TA98, Metabolic Activation: HAMSTER, LIVER, S-9, AROCLOR 1254, Method: STANDARD PLATE); “inactive; negative” under setting [1]; “inactive; negative” (Strain/Indicator: TA98, Metabolic Activation: RAT, LIVER, S-9, SODIUM PHENOBARBITAL, Method: STANDARD PLATE); “inactive; negative” (Strain/Indicator: TA100, Metabolic Activation: HAMSTER, LIVER, S-9, AROCLOR 1254, Method: STANDARD PLATE); “inactive; negative” under setting [2]; “inactive; negative” (Strain/Indicator: TA100, Metabolic Activation: RAT, LIVER, S-9, SODIUM PHENOBARBITAL, Method: STANDARD PLATE). Also, the mutagenic call (Strain/Indicator: TA1535, Metabolic Activation: HAMSTER, LIVER, S-9, AROCLOR 1254, Method: STANDARD PLATE) is “inactive; negative”; the mutagenic call under setting [3] is “inactive; negative”; the mutagenic call (Strain/Indicator: TA1535, Metabolic Activation: RAT, LIVER, S-9, SODIUM PHENOBARBITAL, Method: STANDARD PLATE) was “inactive; negative”; the mutagenic call (Strain/Indicator: TA1537, Metabolic Activation: HAMSTER, LIVER, S-9, AROCLOR 1254, Method: STANDARD PLATE) was “inactive; negative”; the mutagenic call under setting [4] is “inactive; negative”; the mutagenic call (Strain/Indicator: TA1537, Metabolic Activation: RAT, LIVER, S-9, SODIUM PHENOBARBITAL, Method: STANDARD PLATE) is “inactive; negative”. Besides, the mutagenic call by setting is: (Strain/Indicator: TA1538, Metabolic Activation: NONE, Method: STANDARD PLATE) “inactive; negative”; (Strain/Indicator: TA1538, Metabolic Activation: RAT, LIVER, S-9, AROCLOR 1254, Method: STANDARD PLATE) “inactive; negative”; (Strain/Indicator: TA1538, Metabolic Activation: RAT, LIVER, S-9, SODIUM PHENOBARBITAL, Method: STANDARD PLATE) “inactive; negative”.

As for `CC(C)NC(C)C`, the mutagenic call (Strain/Indicator: TA98, Metabolic Activation: HAMSTER, LIVER, S-9, AROCLOR 1254 (10%), Method: PREINCUBATION) was “inactive; negative”; the mutagenic call under setting [5] was “inactive; negative”; the mutagenic call (Strain/Indicator: TA98, Metabolic Activation: RAT, LIVER, S-9, AROCLOR 1254 (10%), Method: PREINCUBATION) was “inactive; negative”; the mutagenic call (Strain/Indicator: TA100, Metabolic Activation: HAMSTER, LIVER, S-9, AROCLOR 1254 (10%), Method: PREINCUBATION) was “inactive; negative”; the mutagenic call under setting [6] is “inactive; negative”; the mutagenic call (Strain/Indicator: TA100, Metabolic Activation: RAT, LIVER, S-9, AROCLOR 1254 (10%), Method: PREINCUBATION) is “inactive; negative”. The mutagenic call runs as follows: (Strain/Indicator: TA1535, Metabolic Activation: HAMSTER, LIVER, S-9, AROCLOR 1254 (10%), Method: PREINCUBATION) “inactive; negative”; under setting [7], “inactive; negative”; (Strain/Indicator: TA1535, Metabolic Activation: RAT, LIVER, S-9, AROCLOR 1254 (10%), Method: PREINCUBATION) “inactive; negative”; (Strain/Indicator: TA1537, Metabolic Activation: HAMSTER, LIVER, S-9, AROCLOR 1254 (10%), Method: PREINCUBATION) “inactive; negative”; under setting [8], “inactive; negative”; (Strain/Indicator: TA1537, Metabolic Activation: RAT, LIVER, S-9, AROCLOR 1254 (10%), Method: PREINCUBATION) “inactive; negative”.

Turning to `ClCc1ccc2c(c1)-c1cccc3cccc-2c13`, the mutagenic call runs as follows: under setting [1], “active; positive”; under setting [2], “active; positive”.

Regarding `Cc1cccc(OP(=O)(Oc2cccc(C)c2)Oc2cccc(C)c2)c1`, the mutagenic call reads like this: (Strain/Indicator: TA98, Metabolic Activation: HAMSTER, LIVER, S-9, AROCLOR 1254, Method: PREINCUBATION) “inactive; negative”; under setting [5], “inactive; negative”; (Strain/Indicator: TA98, Metabolic Activation: RAT, LIVER, S-9, AROCLOR 1254, Method: PREINCUBATION) “inactive; negative”; (Strain/Indicator: TA100, Metabolic Activation: HAMSTER, LIVER, S-9, AROCLOR 1254, Method: PREINCUBATION) “inactive; negative”; under setting [6], “inactive; negative”; (Strain/Indicator: TA100, Metabolic Activation: RAT, LIVER, S-9, AROCLOR 1254, Method: PREINCUBATION) “inactive; negative”. Besides, the mutagenic call is, setting by setting: (Strain/Indicator: TA1535, Metabolic Activation: HAMSTER, LIVER, S-9, AROCLOR 1254, Method: PREINCUBATION) “inactive; negative”; under setting [7], “inactive; negative”; (Strain/Indicator: TA1535, Metabolic Activation: RAT, LIVER, S-9, AROCLOR 1254, Method: PREINCUBATION) “inactive; negative”; (Strain/Indicator: TA1537, Metabolic Activation: HAMSTER, LIVER, S-9, AROCLOR 1254, Method: PREINCUBATION) “inactive; negative”; under setting [8], “inactive; negative”; (Strain/Indicator: TA1537, Metabolic Activation: RAT, LIVER, S-9, AROCLOR 1254, Method: PREINCUBATION) “inactive; negative”.

For the compound `Nc1snc2cc(Cl)ccc12`, the mutagenic call by setting is: under setting [1], “inactive; negative”; (Strain/Indicator: TA98, Metabolic Activation: S-9, Method: STANDARD PLATE) “inactive; negative”; under setting [2], “inactive; negative”; (Strain/Indicator: TA100, Metabolic Activation: S-9, Method: STANDARD PLATE) “active; positive”; under setting [3], “inactive; negative”; (Strain/Indicator: TA1535, Metabolic Activation: S-9, Method: STANDARD PLATE) “inactive; negative”. Also, the mutagenic call was “inactive; negative” under setting [4] and “active; positive” (Strain/Indicator: TA1537, Metabolic Activation: S-9, Method: STANDARD PLATE).

Regarding `c1ccc2cc3c(ccc4c5ccccc5ccc34)cc2c1`, the mutagenic call was “inactive; negative” (Strain/Indicator: TA100, Metabolic Activation: RAT, LIVER, MICROSOMES, AROCLOR 1254, Method: STANDARD PLATE); “inactive; negative” (Strain/Indicator: TA100, Metabolic Activation: RAT, LIVER, MICROSOMES, BENZO[B]CHRYSENE, Method: STANDARD PLATE); “inactive; negative” (Strain/Indicator: TA100, Metabolic Activation: RAT, LIVER, MICROSOMES, Method: STANDARD PLATE).

(Values after PubChem BioAssay AID1259407 (Chemical Carcinogenesis Research Information System (CCRIS), 2018).)
